{"source": "patent US20030104507A1", "about": "“Method for detection of ATP” (priority 2001, published 2003)", "tested_on": "ATPase activity endogenous to L929 cell lysate", "experiment": "Detergent inhibition of ATPase endogenous to L929 cell lysate (ATP remaining by luciferase luminescence, 22° C.)", "assay_type": "biochemical", "parameters": "key to Relative ATPase Activity, slope det/slope lysate: slope with detergent / slope without; ≥1.0 = 100% activity, 0.5 = 50%", "in_short": "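L929 lysate (1.5×10^5 cells/ml, four freeze–thaw cycles) held with detergent at final 1.0, 0.5, 0.1 or 0.05% at 22° C; remaining ATP read over time with luciferase-luciferin reagent (100 μM luciferin, 10 mM MgSO4, pH 7.5). Relative ATPase activity = slope of log % ATP remaining vs time with detergent ÷ slope for lysate-only control.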", "key": {"[1]": {"conditions": "Example 2, 0.02% detergent, 5 min"}, "[2]": {"conditions": "Example 2, 0.02% detergent, 75 min"}, "[3]": {"conditions": "Example 2, 0.02% detergent, 169 min"}, "[4]": {"conditions": "Example 2, 0.02% detergent, 222 min"}, "[5]": {"conditions": "Example 2, 0.02% detergent, 260 min"}}, "data": [{"smiles": "CCCCCCCCCCCC[N+](C)(C)CCCS(=O)(=O)[O-]", "note": "[Sulfobetaine 3-10, N-Dodecyl-N,N-dimethyl-3-ammonio-1-propanesulfonate]", "values": [{"measurement": "Relative ATPase Activity, slope det/slope lysate", "setting": "0.02 percent detergent", "result": 1.009}, {"measurement": "Slope (log percent ATP remaining vs time in minutes)", "setting": "0.02 percent detergent", "result": "−0.0064"}, {"measurement": "Average Relative Light Unit Values", "setting": "0.05% detergent, 5 min", "result": 6247.31, "unit": "rlu"}, {"measurement": "Percent ATP Remaining", "setting": "0.05% detergent, 5 min", "result": 100, "unit": "%"}, {"measurement": "Average Relative Light Unit Values", "setting": "0.05% detergent, 75 min", "result": 2270.13, "unit": "rlu"}, {"measurement": "Percent ATP Remaining", "setting": "0.05% detergent, 75 min", "result": 36.3, "unit": "%"}, {"measurement": "Average Relative Light Unit Values", "setting": "0.05% detergent, 169 min", "result": 1053.56, "unit": "rlu"}, {"measurement": "Percent ATP Remaining", "setting": "0.05% detergent, 169 min", "result": 16.9, "unit": "%"}, {"measurement": "Average Relative Light Unit Values", "setting": "0.05% detergent, 222 min", "result": 465.03, "unit": "rlu"}, {"measurement": "Percent ATP Remaining", "setting": "0.05% detergent, 222 min", "result": 7.4, "unit": "%"}, {"measurement": "Average Relative Light Unit Values", "setting": "0.05% detergent, 260 min", "result": 233.19, "unit": "rlu"}, {"measurement": "Percent ATP Remaining", "setting": "0.05% detergent, 260 min", "result": 3.7, "unit": "%"}, {"measurement": "Relative ATPase Activity, slope det/slope lysate", "setting": "0.05 percent detergent", "result": 1.077}, {"measurement": "Slope (log percent ATP remaining vs time in minutes)", "setting": "0.05 percent detergent", "result": "−0.0057"}, {"measurement": "Average Relative Light Unit Values", "setting": "0.1% detergent, 5 min", "result": 6506.61, "unit": "rlu"}, {"measurement": "Percent ATP Remaining", "setting": "0.1% detergent, 5 min", "result": 100, "unit": "%"}, {"measurement": "Average Relative Light Unit Values", "setting": "0.1% detergent, 75 min", "result": 2367.27, "unit": "rlu"}, {"measurement": "Percent ATP Remaining", "setting": "0.1% detergent, 75 min", "result": 36.4, "unit": "%"}, {"measurement": "Average Relative Light Unit Values", "setting": "0.1% detergent, 169 min", "result": 1100.37, "unit": "rlu"}, {"measurement": "Percent ATP Remaining", "setting": "0.1% detergent, 169 min", "result": 16.9, "unit": "%"}, {"measurement": "Average Relative Light Unit Values", "setting": "0.1% detergent, 222 min", "result": 446.29, "unit": "rlu"}, {"measurement": "Percent ATP Remaining", "setting": "0.1% detergent, 222 min", "result": 6.9, "unit": "%"}, {"measurement": "Average Relative Light Unit Values", "setting": "0.1% detergent, 260 min", "result": 222.22, "unit": "rlu"}, {"measurement": "Percent ATP Remaining", "setting": "0.1% detergent, 260 min", "result": 3.4, "unit": "%"}, {"measurement": "Relative ATPase Activity, slope det/slope lysate", "setting": "0.10 percent detergent", "result": 1.109}, {"measurement": "Slope (log percent ATP remaining vs time in minutes)", "setting": "0.10 percent detergent", "result": "−0.0058"}, {"measurement": "Average Relative Light Unit Values", "setting": "0.5% detergent, 5 min", "result": 6565.98, "unit": "rlu"}, {"measurement": "Percent ATP Remaining", "setting": "0.5% detergent, 5 min", "result": 100, "unit": "%"}, {"measurement": "Average Relative Light Unit Values", "setting": "0.5% detergent, 75 min", "result": 2405.95, "unit": "rlu"}, {"measurement": "Percent ATP Remaining", "setting": "0.5% detergent, 75 min", "result": 36.6, "unit": "%"}, {"measurement": "Average Relative Light Unit Values", "setting": "0.5% detergent, 169 min", "result": 1211.13, "unit": "rlu"}, {"measurement": "Percent ATP Remaining", "setting": "0.5% detergent, 169 min", "result": 18.4, "unit": "%"}, {"measurement": "Average Relative Light Unit Values", "setting": "0.5% detergent, 222 min", "result": 609.75, "unit": "rlu"}, {"measurement": "Percent ATP Remaining", "setting": "0.5% detergent, 222 min", "result": 9.3, "unit": "%"}, {"measurement": "Average Relative Light Unit Values", "setting": "0.5% detergent, 260 min", "result": 391.64, "unit": "rlu"}, {"measurement": "Percent ATP Remaining", "setting": "0.5% detergent, 260 min", "result": 6.0, "unit": "%"}, {"measurement": "Relative ATPase Activity, slope det/slope lysate", "setting": "0.50 percent detergent", "result": 0.921}, {"measurement": "Slope (log percent ATP remaining vs time in minutes)", "setting": "0.50 percent detergent", "result": "−0.0049"}, {"measurement": "Average Relative Light Unit Values", "setting": "1.0% detergent, 5 min", "result": 7861.36, "unit": "rlu"}, {"measurement": "Percent ATP Remaining", "setting": "1.0% detergent, 5 min", "result": 100, "unit": "%"}, {"measurement": "Average Relative Light Unit Values", "setting": "1.0% detergent, 75 min", "result": 5703.51, "unit": "rlu"}, {"measurement": "Percent ATP Remaining", "setting": "1.0% detergent, 75 min", "result": 72.6, "unit": "%"}, {"measurement": "Average Relative Light Unit Values", "setting": "1.0% detergent, 169 min", "result": 4318.46, "unit": "rlu"}, {"measurement": "Percent ATP Remaining", "setting": "1.0% detergent, 169 min", "result": 54.9, "unit": "%"}, {"measurement": "Average Relative Light Unit Values", "setting": "1.0% detergent, 222 min", "result": 3075.12, "unit": "rlu"}, {"measurement": "Percent ATP Remaining", "setting": "1.0% detergent, 222 min", "result": 39.1, "unit": "%"}, {"measurement": "Average Relative Light Unit Values", "setting": "1.0% detergent, 260 min", "result": 2193.02, "unit": "rlu"}, {"measurement": "Percent ATP Remaining", "setting": "1.0% detergent, 260 min", "result": 27.9, "unit": "%"}, {"measurement": "Relative ATPase Activity, slope det/slope lysate", "setting": "1.00 percent detergent", "result": 0.417}, {"measurement": "Slope (log percent ATP remaining vs time in minutes)", "setting": "1.00 percent detergent", "result": "−0.0022"}, {"measurement": "Average Relative Light Unit Values", "setting": "[1]", "result": 6120.5, "unit": "rlu"}, {"measurement": "Percent ATP Remaining", "setting": "[1]", "result": 100.00, "unit": "%"}, {"measurement": "Average Relative Light Unit Values", "setting": "[2]", "result": 1622.61, "unit": "rlu"}, {"measurement": "Percent ATP Remaining", "setting": "[2]", "result": 26.51, "unit": "%"}, {"measurement": "Average Relative Light Unit Values", "setting": "[3]", "result": 291.09, "unit": "rlu"}, {"measurement": "Percent ATP Remaining", "setting": "[3]", "result": 4.76, "unit": "%"}, {"measurement": "Average Relative Light Unit Values", "setting": "[4]", "result": 245.55, "unit": "rlu"}, {"measurement": "Percent ATP Remaining", "setting": "[4]", "result": 4.01, "unit": "%"}, {"measurement": "Average Relative Light Unit Values", "setting": "[5]", "result": 136.43, "unit": "rlu"}, {"measurement": "Percent ATP Remaining", "setting": "[5]", "result": 2.23, "unit": "%"}, {"measurement": "concentrations which resulted in a 25% or greater decrease in the relative ATPase activity", "setting": "compared to reactions in the absence of detergent", "result": "≥ 1", "unit": "%"}]}]}
